Legend:
Corn [1] = test: Corn growth at 8° C. for 7 d after foliar GA3 application at V2; assay type: in vivo; settings: 120 mg/liter (0.2 mg/plant: 6.9 grams of GA3/acre)
Protocol: Corn seeds were planted in 2 quart pots filled with standard medium and grown in the greenhouse. After the corn grew for 10 days at 24° C., it was at the V2 growth stage. The 10d post-sowing plants received a foliar application of 1.8 ml of 120 mg/liter GA3 plus 0.05% of a non-ionic surfactant. Immediately after spraying, both the GA3-treated and untreated control plants were moved to a growth chamber set at 8° C. with a 12:12 photoperiod. The height of the plants was measured one week after treatment.

Corn [2] = test: Greenhouse corn, foliar GA3 before a simulated freeze event (−2° C. for 8 hours), evaluated 8 days after freezing; assay type: in vivo
Protocol: Corn seeds were planted in 18 cell flats filled with Sunshine 900 mix. Osmocote Plus (cal mag) 16-8-12 and Gypsum ([…]) were added (standard medium). The plants were watered and fertilized with 100 ppm of a commercially available 15-5-15 mixture plus 100 ppm calcium and 100 ppm magnesium, pH 6.5, as necessary and grown in the greenhouse. After the corn grew for 7 days, the plants received a foliar application of 1.8 ml of 120 mg/liter GA3 plus 0.05% non-ionic surfactant per plant. Sixteen hours later, the GA3-treated and untreated control plants were moved to a cold room with temperature at −2° C. for 8 hours to simulate a freeze event. Plants were then moved to the greenhouse (25° C.). The plant height, number of injured leaves, and damaged leaf area were evaluated at 8 days after freezing.

[3] = 120 mg/liter GA3, 1.8 ml per plant, 16 h before −2° C. for 8 h, 8 days after freezing
[4] = pre-frost GA3 treatment, 120 mg/liter

Structure (SMILES): C=C1C[C@]23C[C@@]1(O)CC[C@H]2[C@@]12C=C[C@H](O)[C@@](C)(C(=O)O1)[C@H]2[C@@H]3C(=O)O [GA3, gibberellic acid]
- Growth rate (Corn [1]; 7 d at 8° C.): 0.58 cm/day
- Height at 7 d (Corn [1]; 7 d at 8° C., 12:12 photoperiod): 28.0 cm
- Height at Application (Corn [1]; baseline at application, V2): 23.9 cm
- Damaged leaf area (Corn [2]; [3]): 12.4%
- Number of injured leaf (Corn [2]; [3]): 2.6
- Plant height (Corn [2]; [3]): 59.7 cm
- Effect on number of injured leaves or damaged leaf area (Corn [2]; [4]): did not reduce the number of injured leaves or damaged leaf area
- Recovery from frost damage (Corn [2]; [4]): did help the corn recover from the frost damage
